biological target: T1, chimeric human H3 receptor (Homo sapiens, UniProt Q9Y5N1); assay: Chimeric human H3 receptor GTP binding assay (agonist-stimulated GTP-gamma35S binding, Example 7); assay type: biochemical; settings: Table I; P2 membranes of Sf9 cells, 1 μM histamine as agonist, Ki from IC50 by Cheng-Prusoff
T1 construct: made in house; host or cells: Sf9 insect cells (baculovirus); P2 membrane preparation
Excerpt: This Example illustrates a representative assay for evaluating agonist-stimulated GTP-gamma^35S binding (“GTP binding”) activity. […] This agonist-stimulated GTP binding activity can also be used to detect partial agonism mediated by antagonist compounds. A compound analyzed in this assay is referred to herein as a “test compound.”
Four independent baculoviral stocks (one directing the expression of the chimeric human H3 receptor and three directing the expression of each of the three subunits of a heterotrimeric G-protein) are used to infect a culture of Sf9 cells as described above. P2 membranes are prepared as described above, and agonist-stimulated GTP binding on the P2 membranes is assessed using histamine (Sigma Chemical Co., St. Louis, Mo.) as agonist in order to ascertain that the receptor/G-protein-alpha-beta-gamma combination(s) yield a functional response as measured by GTP binding. P2 membranes are resuspended by Dounce homogenization (tight pestle) in GTP binding assay buffer (50 mM Tris pH 7.4, 120 mM NaCl, 5 mM MgCl2, 2 mM EGTA, 1 mg/ml BSA, 0.2 mg/ml bacitracin, 0.02 mg/ml aprotinin, 0.01 mg/ml saponin, 10 μM GDP) and added to assay tubes at a concentration of 35 μg protein/reaction tube. After adding increasing doses of histamine at concentrations ranging from 10^−12 M to 10^−5 M, reactions are initiated by the addition of […] GTP-gamma^35S (PERKIN ELMER; Boston, Mass.) with a final assay volume of 0.20 ml. In competition experiments, non-radiolabeled test compounds are added to separate reactions at concentrations ranging from 10^−10 M to 10^−6 M along with 1 μM histamine to yield a final volume of 0.20 ml.
Neutral antagonists are antagonists that are substantially free of inherent agonist activity, and include those test compounds that reduce the histamine-stimulated GTP binding activity towards, but not below, baseline levels. In contrast, in the absence of added histamine, inverse agonists reduce the GTP binding activity of the receptor-containing membranes below baseline.
After a 60-min incubation at room temperature, reactions are terminated by vacuum filtration over WHATMAN GF/C filters (pre-soaked in wash buffer, 0.1% BSA) followed by washing with ice-cold wash buffer (50 mM Tris pH 7.4, 120 mM NaCl). The amount of receptor-bound (and thereby membrane-bound) GTP-gamma^35S is determined by measuring the filter-bound radioactivity, preferably by liquid scintillation spectrometry of the washed filters. Non-specific binding is determined in parallel assays including 10 μM unlabeled GTP-gammaS and typically represents less than 5 percent of total binding. Data is expressed as percent above basal (baseline). The results of GTP binding experiments are analyzed using SIGMAPLOT software (SPSS Inc., Chicago, Ill.). IC50 values are calculated by non-linear regression analysis of dose-response curves using Kaleidograph (Synergy Software, Reading, Pa.).
Alternatively the data is analyzed as follows. First, the average bound radioactivity from negative control wells (no agonist) is subtracted from the bound radioactivity detected for each of the other experimental wells. Second, average bound radioactivity is calculated for the positive control wells (agonist wells). Then, percent inhibition for each compound tested is calculated using the equation:
Calculated IC50 values are converted to K1 values by the Cheng-Prusoff correction (Cheng and Prusoff (1973) Biochem. Pharmacol. 22(23):3099-3108). Accordingly, the following equation: Ki=IC50/(1+[L]/EC50) is used, where [L] is the histamine concentration in the GTP binding assay, and EC50 is the concentration of histamine producing a 50% response, as determined by a dose-response analysis using concentrations of histamine ranging from 10^−10 M to 10^−6M. […]

T1 sequence (Q9Y5N1 with tags, fused parts or gaps): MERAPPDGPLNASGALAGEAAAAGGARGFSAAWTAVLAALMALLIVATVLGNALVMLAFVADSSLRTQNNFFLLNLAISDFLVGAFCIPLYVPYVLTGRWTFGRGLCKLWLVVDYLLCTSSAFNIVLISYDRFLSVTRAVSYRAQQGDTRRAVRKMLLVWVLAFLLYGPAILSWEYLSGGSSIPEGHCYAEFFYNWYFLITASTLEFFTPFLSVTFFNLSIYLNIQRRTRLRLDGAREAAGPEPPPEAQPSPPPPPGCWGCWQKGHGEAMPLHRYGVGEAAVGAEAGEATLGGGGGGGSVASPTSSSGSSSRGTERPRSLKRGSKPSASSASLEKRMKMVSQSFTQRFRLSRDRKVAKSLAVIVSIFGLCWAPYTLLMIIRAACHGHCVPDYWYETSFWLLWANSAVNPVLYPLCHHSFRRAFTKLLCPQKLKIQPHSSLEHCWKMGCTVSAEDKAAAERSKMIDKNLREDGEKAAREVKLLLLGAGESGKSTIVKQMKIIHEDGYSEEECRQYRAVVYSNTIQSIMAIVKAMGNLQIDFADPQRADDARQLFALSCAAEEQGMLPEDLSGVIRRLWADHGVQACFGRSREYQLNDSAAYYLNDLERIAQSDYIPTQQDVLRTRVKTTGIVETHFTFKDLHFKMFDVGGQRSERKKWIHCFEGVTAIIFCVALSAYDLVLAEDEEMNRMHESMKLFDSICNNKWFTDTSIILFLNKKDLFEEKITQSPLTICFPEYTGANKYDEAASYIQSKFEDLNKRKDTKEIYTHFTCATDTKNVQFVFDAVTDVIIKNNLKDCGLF

Ki [µM] | SMILES
< 1 | O=C(CN1CCn2ccnc2C1)N1CCN(C2CCC2)CC1 [Compound 83, 7-[2-(4-cyclobutylpiperazin-1-yl)-2-oxoethyl]-5,6,7,8-tetrahydroimidazo[1,2-a]pyrazine]

same assay, conditions: Table II; "*" = Ki in assay of Example 7 less than 1 micromolar

SMILES | Ki [µM]
CS(=O)(=O)c1cccc(-c2ccc3c(c2)CCN(CC(=O)N2CCN(C4CCC4)CC2)C3)c1 [Compound 84, 2-[2-(4-cyclobutylpiperazin-1-yl)-2-oxoethyl]-6-[3-(methylsulfonyl)phenyl]-1,2,3,4-tetrahydroisoquinoline] | < 1
CNC(=O)c1ccc2c(c1)CCN(CC(=O)N1CCN(C3CCC3)CC1)C2 [Compound 85, 2-[2-(4-cyclobutylpiperazin-1-yl)-2-oxoethyl]-N-methyl-1,2,3,4-tetrahydroisoquinoline-6-carboxamide] | < 1
CCOC(=O)c1ccc2c(c1)CCN(CC(=O)N1CCN(C3CCC3)CC1)C2 [Compound 86, ethyl 2-[2-(4-cyclobutylpiperazin-1-yl)-2-oxoethyl]-1,2,3,4-tetrahydroisoquinoline-6-carboxylate] | < 1
CC1CCCN1C(=O)c1ccc2c(c1)CCN(CC(=O)N1CCN(C3CCC3)CC1)C2 (stereo not drawn) [Compound 87, 2-[2-(4-cyclobutylpiperazin-1-yl)-2-oxoethyl]-6-[(2-methylpyrrolidin-1-yl)carbonyl]-1,2,3,4-tetrahydroisoquinoline] | < 1
O=C(NC1CCCC1)c1ccc2c(c1)CCN(CC(=O)N1CCN(C3CCC3)CC1)C2 [Compound 88, 2-[2-(4-cyclobutylpiperazin-1-yl)-2-oxoethyl]-N-cyclopentyl-1,2,3,4-tetrahydroisoquinoline-6-carboxamide] | < 1
O=C(CN1CCc2c(cnn2-c2ccc(Br)cc2)C1)N1CCN(C2CCC2)CC1 [Compound 90, 1-(4-bromophenyl)-5-[2-(4-cyclobutylpiperazin-1-yl)-2-oxoethyl]-4,5,6,7-tetrahydro-1H-pyrazolo[4,3-c]pyridine] | < 1
N#Cc1ccc(-n2ncc3c2CCN(CC(=O)N2CCN(C4CCC4)CC2)C3)cc1 [Compound 93, 4-{5-[2-(4-cyclobutylpiperazin-1-yl)-2-oxoethyl]-4,5,6,7-tetrahydro-1H-pyrazolo[4,3-c]pyridin-1-yl}benzonitrile] | < 1
COc1ccc(-c2ccc3c(c2)CCN(CC(=O)N2CCN(C4CCC4)CC2)C3)cn1 [Compound 95, 2-[2-(4-cyclobutylpiperazin-1-yl)-2-oxoethyl]-6-(6-methoxypyridin-3-yl)-1,2,3,4-tetrahydroisoquinoline] | < 1
O=C(CN1CCc2nc(Br)sc2C1)N1CCN(C2CCC2)CC1 [Compound 97, 2-bromo-5-[2-(4-cyclobutylpiperazin-1-yl)-2-oxoethyl]-4,5,6,7-tetrahydro[1,3]thiazolo [5,4-c]pyridine] | < 1
O=C(CN1CCc2ccc(-c3cncnc3)cc2CC1)N1CCN(C2CCC2)CC1 [Compound 104, 3-[2-(4-cyclobutylpiperazin-1-yl)-2-oxoethyl]-7-pyrimidin-5-yl-2,3,4,5-tetrahydro-1H-3-benzazepine] | < 1
CS(=O)(=O)c1ccc(-c2nc3c(s2)CCN(CC(=O)N2CCN(C4CCC4)CC2)C3)cc1 [Compound 105, 5-[2-(4-cyclobutylpiperazin-1-yl)-2-oxoethyl]-2-[4-(methylsulfonyl)phenyl]-4,5,6,7-tetrahydro[1,3]thiazolo [4,5-c]pyridine] | < 1
O=C(CN1CCc2sc(Br)nc2C1)N1CCN(C2CCC2)CC1 [Compound 108, 2-bromo-5-[2-(4-cyclobutylpiperazin-1-yl)-2-oxoethyl]-4,5,6,7-tetrahydro[1,3] thiazolo [4,5-c]pyridine] | < 1
O=C(CN1CCc2nc(-c3cncnc3)sc2C1)N1CCCC1CN1CCCC1 (stereo not drawn) [Compound 110, 5-{2-oxo-2-[2-(pyrrolidin-1-ylmethyl)pyrrolidin-1-yl]ethyl}-2-pyrimidin-5-yl-4,5,6,7-tetrahydro[1,3] thiazolo [5,4-c]pyridine] | < 1

The remaining lines, values ahead:

Ki [µM] | SMILES
< 1 | O=C(CN1CCc2cc(C(=O)N3CCCC3)ccc2C1)N1CCN(C2CCC2)CC1 [Compound 89, 2-[2-(4-cyclobutylpiperazin-1-yl)-2-oxoethyl]-6-(pyrrolidin-1-ylcarbonyl)-1,2,3,4-tetrahydroisoquinoline]
< 1 | O=C(CN1CCc2n[nH]cc2C1)N1CCN(C2CCC2)CC1 [Compound 91, 5-[2-(4-cyclobutylpiperazin-1-yl)-2-oxoethyl]-4,5,6,7-tetrahydro-2H-pyrazolo[4,3-c]pyridine]
< 1 | CC(=O)c1ccc(-n2ncc3c2CCN(CC(=O)N2CCN(C4CCC4)CC2)C3)cc1 [Compound 92, 1-(4-{5-[2-(4-cyclobutylpiperazin-1-yl)-2-oxoethyl]-4,5,6,7-tetrahydro-1H-pyrazolo[4,3-c]pyridin-1-yl}phenyl)ethanone]
< 1 | CC(=O)c1ccc(-n2cc3c(n2)CCN(CC(=O)N2CCN(C4CCC4)CC2)C3)cc1 [Compound 94, 1-(4-{5-[2-(4-cyclobutylpiperazin-1-yl)-2-oxoethyl]-4,5,6,7-tetrahydro-2H-pyrazolo[4,3-c]pyridin-2-yl}phenyl)ethanone]
< 1 | CC(=O)c1ccc(-n2cc3c(n2)CCN(CC(=O)N2CCN(C4CCC4)CC2)C3)nc1 [Compound 96, 1-(6-{5-[2-(4-cyclobutylpiperazin-1-yl)-2-oxoethyl]-4,5,6,7-tetrahydro-2H-pyrazolo[4,3-c]pyridin-2-yl}pyridin-3-yl)ethanone]
< 1 | CC(=O)c1ccc(-c2nc3c(s2)CN(CC(=O)N2CCN(C4CCC4)CC2)CC3)cc1 [Compound 98, 1-(4-{5-[2-(4-cyclobutylpiperazin-1-yl)-2-oxoethyl]-4,5,6,7-tetrahydro[1,3]thiazolo [5,4-c]pyridin-2-yl}phenyl)ethanone]
< 1 | CS(=O)(=O)c1cccc(-c2nc3c(s2)CN(CC(=O)N2CCN(C4CCC4)CC2)CC3)c1 [Compound 99, 5-[2-(4-cyclobutylpiperazin-1-yl)-2-oxoethyl]-2-[3-(methylsulfonyl)phenyl]-4,5,6,7-tetrahydro[1,3]thiazolo [5,4-c]pyridine]
< 1 | COC(=O)c1ccc(-c2nc3c(s2)CN(CC(=O)N2CCN(C4CCC4)CC2)CC3)cc1 [Compound 100, methyl 4-{5-[2-(4-cyclobutylpiperazin-1-yl)-2-oxoethyl]-4,5,6,7-tetrahydro[1,3]thiazolo [5,4-c]pyridin-2-yl}benzoate]
< 1 | CC(=O)c1ccc2c(c1)CCN(CC(=O)N1CCN(C3CCC3)CC1)CC2 [Compound 101, 1-{3-[2-(4-cyclobutylpiperazin-1-yl)-2-oxoethyl]-2,3,4,5-tetrahydro-1H-3-benzazepin-7-yl}ethanone]
< 1 | N#Cc1nc2c(s1)CN(CC(=O)N1CCN(C3CCC3)CC1)CC2 [Compound 102, 5-[2-(4-cyclobutylpiperazin-1-yl)-2-oxoethyl]-4,5,6,7-tetrahydro[1,3]thiazolo [5,4-c]pyridine-2-carbonitrile]
< 1 | CC(=O)c1nc2c(s1)CN(CC(=O)N1CCN(C3CCC3)CC1)CC2 [Compound 103, 1-{5-[2-(4-cyclobutylpiperazin-1-yl)-2-oxoethyl]-4,5,6,7-tetrahydro[1,3]thiazolo [5,4-c]pyridin-2-yl}ethanone]
< 1 | CSc1nc2c(o1)CN(CC(=O)N1CCN(C3CCC3)CC1)CC2 [Compound 107, 5-[2-(4-cyclobutylpiperazin-1-yl)-2-oxoethyl]-2-(methylthio)-4,5,6,7-tetrahydro[1.3]oxazolo [5,4-c]pyridine]
< 1 | CC1CN(C(=O)CN2CCc3nc(Cl)sc3C2)CCN1C1CCC1 (stereo not drawn) [Compound 109, 2-chloro-5-[2-(4-cyclobutyl-3-methylpiperazin-1-yl)-2-oxoethyl]-4,5,6,7-tetrahydro[1,3] thiazolo [5,4-c]pyridine]

Source: patent US20110082130A1 (LIGAND PHARMACEUTICALS, INC., priority 2006, published 2011)
